Assay results from patent US20220409560A1, “Pharmaceutical Compositions, Formulations And Methods For The Treatment Of Retinoblastoma” (Oxular Limited, priority 2019, published 2022).
Like-named read-outs stand apart in the source and are kept apart here.

Tests used:
Y79 cell line = assay: Retinoblastoma cell proliferation inhibition assay (Cell Titer Glo, 72 hour incubation); type: cell-based, human
[1] = test system: WERI cell line (WERI-Rb1); assay: as above; type: cell-based, human
BJ cell line [2] = conditions: BJ cell line (normal fibroblast), 72 hour incubation
[3] = test system: Human retinoblastoma tumour cells, Y79; assay: Retinoblastoma in vivo model, retinoblastoma cell area on the retina by histology; set-up: species or system rabbits; conditions: for retinoblastoma cell areas from both H&E staining and antibody staining: culled at 5 weeks; for reduction in retinoblastoma cells in the eyes as compared to sham: p<0.01
Experimental: Human retinoblastoma tumour cells, Y79 (ATCC@ HTB-18), were grown in media consisting of RPMI 1640 containing 20% FBS, L-glutamine 200 mM (100×), penicillin/streptomycin 5,000 U/ml and amphotericin B 250 μg/ml, to a target suspension density of 3×10^5 cells/flask in 20 ml of media in a T75 flask. Thirty-two eyes in 16 immunosuppressed rabbits were inoculated with 200,000 cells in 30 μl of serum free media to the posterior retinal surface by intravitreal injection. The animals were studied in 4 groups of 8 eight eyes. Two groups were administered topotecan prepared in 30 μl of sterile saline injected intravitreally through a 29 gauge needle in the posterior region of the vitreous cavity near the tumour cells. One topotecan group was administered a 10 μg dose and a second group administered a 50 μg dose. The topotecan groups were administered the active agent formulation at 2, 3 and 4 weeks after tumour cell inoculation. […] A fourth group was treated with a sham injection of 30 μl sterile saline through a 29 gauge needle in the posterior region of the vitreous near the tumour cells at 2, 3 and 4 weeks after tumour cell inoculation. All animals were culled at 5 weeks to allow processing of the retina and retinoblastoma tumour cells on the retina for histological examination. Macro photography of the flat mounted retinae recorded tumour cell survival on the retinae and then representative sections were removed for fixation and subsequent processing for histology. All samples were cut at 5 μm and stained by H&E and replicate slides stained with human mitochondrial marker antibody to positively identify the human retinoblastoma cells. Slides were then scanned using a slide scanner (Histech or Hamamatsu S360) and retinoblastoma cell area on the retina quantified using CaseViewer software.
Representative histology images are shown in FIG. 4 with arrows indicating the retinoblastoma cells on the retina.

[4] = Ocular pharmacokinetic study, suprachoroidal administration of micelle formulation, tissue concentration by LCMS; type: in vivo, New Zealand White rabbits; conditions: 25 μg dose, micellular formulation, rabbit
Text: Both solutions were filter sterilized by passage through a sterile 0.2 micron nylon syringe filter into a sterile vial to produce a sterile formulation. The mixture was vortex mixed to produce a micelle suspension. […] A flexible catheter with 250 micron OD and 140 micron ID was surgically introduced into the suprachoroidal space in the anterior region of the eye at the pars plana. The catheter was advanced posteriorly toward the posterior region of the suprachoroidal space. The catheter was configured to conduct light and provided illumination of the catheter tip and shaft to determine the catheter position and configuration by trans-scleral visualization. The illuminated tip of the catheter was used to position the catheter in the posterior region of the suprachoroidal space. The illuminated shaft of the catheter was used to manipulate and position the catheter to direct the injection toward the posterior region of the space. […] The eyes were examined by slit lamp in the anterior segment and by indirect ophthalmoscopy in the posterior segment prior to euthanasia for each time point at 1, 3, 7, 14 days post administration.

BJ cell line [5] = assay: cells; conditions: Homo sapiens, 72 h

Cc1cc2c(C(=O)NC[C@H](C)c3ccccc3)c(O)c(O)cc2c(O)c1-c1c(C)cc2c(C(=O)NC[C@H](C)c3ccccc3)c(O)c(O)cc2c1O [Sabutoclax]
EC50 (Y79 cell line): 316 nM | EC50 [1]: 211 nM | EC50 (BJ cell line [2]): > 3650 nM

CC(C)c1ccccc1Cc1cc(C(=O)Nc2ccc(S(=O)(=O)c3ccccc3C(C)(C)C)cc2)c(O)c(O)c1O [TW-37]
EC50 (Y79 cell line): 335 nM | retinoblastoma cell areas from both H&E staining and antibody staining ([3]; 10 μg in DMSO intravitreal at 3 and 4 weeks after inoculation): lower compared to sham | reduction in retinoblastoma cells in the eyes as compared to sham ([3]; 10 μg intravitreal at 3 and 4 weeks): statistically significant reduction | choroid concentration at 14 days [4]: near baseline | level of TW-37 in the vitreous [4]: relatively low levels | retina concentration at 14 days [4]: near baseline | time of peak concentration in the choroid [4]: 3 days | time of peak concentration in the retina [4]: 7 days | tissue exposure of TW-37 to the target retina after a single administration [4]: 14 days | EC50 [1]: 278 nM | EC50 (BJ cell line [2]): > 8760 nM

CC[C@@]1(O)C(=O)OCc2c1cc1n(c2=O)Cc2cc3c(CN(C)C)c(O)ccc3nc2-1 [Topotecan]
EC50 (Y79 cell line; Homo sapiens): 69 nM | retinoblastoma cell areas from both H&E staining and antibody staining ([3]; 10 μg intravitreal at 2, 3 and 4 weeks after inoculation): lower compared to sham | retinoblastoma cell areas from both H&E staining and antibody staining ([3]; 50 μg intravitreal at 2, 3 and 4 weeks after inoculation): lower compared to sham | reduction in retinoblastoma cells in the eyes as compared to sham ([3]; high dose (50 μg) intravitreal): statistically significant reduction | EC50 (BJ cell line [5]): > 2570 nM | EC50 ([1]; Homo sapiens): 39 nM

O=C(CCCCCCC(=O)Nc1ccccc1)NO [Vorinostat]
EC50 (BJ cell line [5]): > 54400 nM
